Laboratory results from patent US10933145B2, “Compositions and methods for reducing the risk of radiocontrast-induced nephropathy” (UNIVERSITY OF PITTSBURGH—OF THE COMMONWEALTH SYSTEM OF …, priority 2016, dated 2021).

Assays:
[1] = test system: NFAT activity in MDCK cells; assay: NFAT-luciferase reporter activity in MDCK cells; assay type: cell-based, Canine; settings: 16 percent radiocontrast, 3 hours, MDCK cells infected with Ad-NFAT-luciferase; FIG. 2
Experimental: FIG. 2. NFAT (Nuclear Factor of Activated T-cells) activity in MDCK cells measured via NFAT-luciferase expression at increasing concentrations of radiocontrast. MDCK were engineered to contain a reporter for inflammatory NFAT activity. In particular, MDCK cells were infected with Ad-NFAT-luciferase and treated for 3 hours with […] (0-16%) of iohexol radiocontrast. NFAT activity in MDCK cells was measured via NFAT-luciferase expression.

[2] = test system: NFκB activity in MDCK cells; assay: NFκB activity in MDCK cells exposed to radiocontrast, with or without calcineurin inhibitor; assay type: cell-based, Canine; settings: MDCK cells treated with 16% radiocontrast; FIG. 4A
Source text: FIG. 4A-B. NFκB activity in MDCK cells exposed to increasing amounts of radiocontrast and treated with (A) FK506 (gray bar) or DMSO (as negative control, black bar) or (B) Cyclosporin A.
NFκB activity in MDCK cells exposed to increasing amounts of radiocontrast and treated with either FK506 (FIG. 4A) or cyclosporin A (FIG. 4B).

CC(=O)N(CC(O)CO)c1c(I)c(C(=O)NCC(O)CO)c(I)c(C(=O)NCC(O)CO)c1I (centres unmarked) [iohexol radiocontrast, iohexol]
NFAT activation relative to control [1]: 40 fold
increase in NFκB activation [2]: approximately 5 fold
